From ChEMBL document CHEMBL5528002, “Identification of selective 5-LOX and FLAP inhibitors as novel anti-inflammatory agents by ligand-based virtual screening” (Eur J Med Chem, 2024)
Calls of active or inactive are those of the source. The calls are words filed in the database; no cut-off is given here.

Columns and labels:
Macrophage cell line [1] = experiment: Effect on lipid mediator formation in human M2-like phenotype MDM cells by measuring 14-HDHA formation at 10 uM pre-incubated for 15 mins followed by SACM stimulation and measured after 90 mins by UPLC-MS/MS analysis relative to control; type: functional; conditions: time 105 min, 1.75 h
Macrophage cell line [2] = experiment: Effect on lipid mediator formation in human M2-like phenotype MDM cells by measuring 7-HDHA formation at 10 uM pre-incubated for 15 mins followed by SACM stimulation and measured after 90 mins by UPLC-MS/MS analysis (reference value: 315 +/- 55 pg/ml); type: functional; conditions: time 105 min, 1.75 h
Macrophage cell line [3] = experiment: Effect on lipid mediator formation in human M2-like phenotype MDM cells by measuring RvD2 formation at 10 uM pre-incubated for 15 mins followed by SACM stimulation and measured after 90 mins by UPLC-MS/MS analysis relative to control; type: functional; conditions: time 105 min, 1.75 h
Macrophage cell line [4] = experiment: Effect on lipid mediator formation in human M1-like phenotype MDM cells by measuring 7-HDHA formation at 10 uM pre-incubated for 15 mins followed by SACM stimulation and measured after 90 mins by UPLC-MS/MS analysis (reference value: 118 +/- 14 pg/ml); type: functional; conditions: time 105 min, 1.75 h
Macrophage cell line [5] = experiment: Effect on lipid mediator formation in human M1-like phenotype MDM cells by measuring DHA formation at 10 uM pre-incubated for 15 mins followed by SACM stimulation and measured after 90 mins by UPLC-MS/MS analysis (reference value: 66334 +/- 8894 pg/ml); type: functional; conditions: time 105 min, 1.75 h
Macrophage cell line [6] = experiment: Effect on lipid mediator formation in human M2-like phenotype MDM cells by measuring DHA formation at 10 uM pre-incubated for 15 mins followed by SACM stimulation and measured after 90 mins by UPLC-MS/MS analysis relative to control; type: functional; conditions: time 105 min, 1.75 h
Macrophage cell line [7] = experiment: Effect on lipid mediator formation in human M2-like phenotype MDM cells by measuring 5-HEPE formation at 10 uM pre-incubated for 15 mins followed by SACM stimulation and measured after 90 mins by UPLC-MS/MS analysis relative to control; type: functional; conditions: time 105 min, 1.75 h
Macrophage cell line [8] = experiment: Effect on lipid mediator formation in human M1-like phenotype MDM cells by measuring 14-HDHA formation at 10 uM pre-incubated for 15 mins followed by SACM stimulation and measured after 90 mins by UPLC-MS/MS analysis relative to control; type: functional; conditions: time 105 min, 1.75 h
[9] = target: T1, Prostaglandin E synthase (Homo sapiens) (UniProt O14684); experiment: Inhibition of human mPGES-1 at 10 uM relative to control
T1 sequence (whole entry): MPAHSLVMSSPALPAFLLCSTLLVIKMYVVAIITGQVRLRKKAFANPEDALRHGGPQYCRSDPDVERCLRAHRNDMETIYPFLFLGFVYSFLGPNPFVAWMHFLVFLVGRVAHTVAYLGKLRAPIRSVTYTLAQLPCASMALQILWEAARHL

[10] = target: T2, Bifunctional epoxide hydrolase 2 (Homo sapiens) (UniProt P34913); experiment: Inhibition of human sEH assessed as enzyme remaining activity at 10 uM relative to control
T2 sequence (whole entry): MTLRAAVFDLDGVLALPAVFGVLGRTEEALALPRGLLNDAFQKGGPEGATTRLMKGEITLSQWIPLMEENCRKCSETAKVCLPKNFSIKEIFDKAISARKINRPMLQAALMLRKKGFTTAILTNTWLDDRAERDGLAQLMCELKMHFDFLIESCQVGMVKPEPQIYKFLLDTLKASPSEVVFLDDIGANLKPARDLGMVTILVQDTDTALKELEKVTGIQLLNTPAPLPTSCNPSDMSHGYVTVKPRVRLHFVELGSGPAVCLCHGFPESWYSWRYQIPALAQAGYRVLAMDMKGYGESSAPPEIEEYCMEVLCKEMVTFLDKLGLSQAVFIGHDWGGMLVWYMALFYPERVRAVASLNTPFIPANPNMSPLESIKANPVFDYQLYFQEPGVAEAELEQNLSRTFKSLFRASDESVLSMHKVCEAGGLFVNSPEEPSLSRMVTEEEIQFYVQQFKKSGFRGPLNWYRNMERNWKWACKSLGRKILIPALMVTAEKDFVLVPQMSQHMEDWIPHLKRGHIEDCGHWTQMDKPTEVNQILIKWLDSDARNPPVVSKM

Macrophage cell line [11] = experiment: Effect on lipid mediator formation in human M1-like phenotype MDM cells by measuring PGD2 formation at 10 uM pre-incubated for 15 mins followed by SACM stimulation and measured after 90 mins by UPLC-MS/MS analysis (reference value: 46 +/- 15 pg/ml); type: functional; conditions: time 105 min, 1.75 h
Macrophage cell line [12] = experiment: Effect on lipid mediator formation in human M1-like phenotype MDM cells by measuring 15-HEPE formation at 10 uM pre-incubated for 15 mins followed by SACM stimulation and measured after 90 mins by UPLC-MS/MS analysis (reference value: 57 +/- 10 pg/ml); type: functional; conditions: time 105 min, 1.75 h

| inhibition [9] | Activity [10] [%] | SMILES | Activity (Macrophage cell line [1]) [%] | Activity (Macrophage cell line [2]) [pg/mL] | Activity (Macrophage cell line [3]) [%] | Activity (Macrophage cell line [4]) [pg/mL] | Activity (Macrophage cell line [5]) [pg/mL] | Activity (Macrophage cell line [6]) [%] | Activity (Macrophage cell line [7]) [%] | Activity (Macrophage cell line [8]) [%] | Activity (Macrophage cell line [11]) [pg/mL] | Activity (Macrophage cell line [12]) [pg/mL] |
| --- | --- | --- | --- | --- | --- | --- | --- | --- | --- | --- | --- | --- |
| inactive | 71.5 | COc1ccc(C2=C/C(=C/c3ccc(O)cc3O)C(=O)O2)cc1 | 179 | 383 | 112 | 36 | 71742 | 106 | 18 | 94 | 72 | 55 |
| inactive | 103 | Oc1ccc(CCC2CCC(c3ccc(O)cc3)CO2)cc1 (centres undefined) | 139 | 364 | 96 | 45 | 62371 | 107 | 34 | 89 | 40 | 55 |
